Reference: patent US20060293383A1, “Carbamate compounds for use in preventing or treating neuropathic pain and cluster and migraine headache-associated pain” (priority 2001, published 2006)

Test system: Chung model of neuropathic pain
Experiment: Antiallodynic activity in the Chung model (spinal nerve ligation), manually applied von Frey probes
Type: in vivo, Sprague-Dawley rats
Conditions: for % Maximum Possible Effect: 30 min after oral dosing (time of peak effect), L5 spinal nerve ligated rats, paw withdrawal threshold
Text: The procedure used to test the antiallodynic activity of an enantiomer of Formula (I) substantially free of other enantiomers was the procedure for the measurement of allodynia found in the Chung Model (Kim S. H. and Chung J. M., An Experimental Model for Peripheral Neuropathy Produced by Segmental Spinal Nerve Ligation in the Rat, Pain, 1992, 50, 355-363).
Evaluation of Antiallodynic Activity (Manually Applied Von Frey Probes) Animals
Pathogen-free, male albino Sprague-Dawley rats, 200 g, were purchased from Harlan Industries (Indianapolis, Ind.) and maintained on a 12-h light/dark cycle (lights on at 06:00 h) in a climate-controlled room with food and water available ad libitum up to the time of the testing and food withdrawn 18 hr prior to testing.
Surgical Procedure and Measurement of Allodynia
The rats were anesthetized with isoflurane inhalant anesthesia. The left lumbar spinal nerve at the level of L5 was tightly ligated (4-0 silk suture) distal to the dorsal root ganglion and prior to entrance into the sciatic nerve, as described by Kim and Chung. The incisions were closed and the rats were allowed to recover under conditions described above. This procedure results in mechanical allodynia in the left hind paw. The sham operation, when performed, consisted of a similar surgical procedure lacking only the final ligation of the spinal nerve. Mechanical (tactile) allodynia was assessed by recording the pressure at which the affected paw (ipsilateral to the site of nerve injury) was withdrawn from graded stimuli (von Frey filaments ranging from 4.0 to 148.1 mN) applied by hand perpendicularly to the plantar surface of the paw (between the footpads) through wire-mesh observation cages. A paw withdrawal threshold (PWT) was determined by sequentially increasing and decreasing the stimulus strength and analyzing withdrawal data using a Dixon non-parametric test, as described by Chaplan et al (Chaplan S. R., Bach F. W., Pogrel J. W., Chung J. M. and Yaksh T. L., Quantitative Assessment of Tactile Allodynia in the Rat Paw, J Neurosci Meth, 1994, 53, 55-63). […]

NC(=O)OC[C@H](O)c1ccccc1Cl [Formula (Ib)]
% Maximum Possible Effect (30 mg/kg po): 11% | % Maximum Possible Effect (100 mg/kg po): 28% | time of peak antiallodynic effect (after oral dosing, 30 and 100 mg/kg): 30 min
